Data taken from patent US20230339981A1, “KRAS G12D MODULATING COMPOUNDS” (priority 2022, published 2023).

Columns and labels:
GDP-loaded KRAS G12D = GDP-loaded KRAS G12D (Homo sapiens (Human), UniProt P01116, G12D); assay: KRAS G12D (GDP) biochemical assay (TR-FRET probe displacement); assay type: binding; details: 2 hours
How it was run: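 Compound pre-incubated 30 min with GDP-loaded KRAS G12D in 50 mM Hepes pH 7.4, 150 mM NaCl, 5 mM MgCl2, 0.005% Tween-20, then Eu-streptavidin and TR-FRET probe added. After 2 h at room temperature, TR-FRET ratio read; IC50 is 50% ratio decrease, sigmoidal fit.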

GP2D (KRAS G12D) cells = assay: 2D cell viability assay (CellTiter-Glo); assay type: cell-based; details: GP2d, 96 h, 4 days
How it was run: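 GP2D (KRAS G12D) cells, 1000/well in RPMI + 10% FBS, were plated onto compound (1:3 DMSO series) and grown 4 days at 37 °C, 5% CO2 in 2D. CellTiter-Glo luminescence was read; EC50 is the concentration giving 50% signal decrease, from sigmoidal fit.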

Chain of GDP-loaded KRAS G12D (P01116-2 other isoform, or with tags, fused parts or gaps G12D): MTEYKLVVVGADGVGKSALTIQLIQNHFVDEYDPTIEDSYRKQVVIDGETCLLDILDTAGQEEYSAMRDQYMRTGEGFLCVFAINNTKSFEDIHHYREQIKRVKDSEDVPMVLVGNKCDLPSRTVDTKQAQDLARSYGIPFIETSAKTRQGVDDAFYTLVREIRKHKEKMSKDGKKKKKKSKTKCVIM

SMILES | IC50 (GDP-loaded KRAS G12D) | EC50 (GP2D (KRAS G12D) cells)
Oc1cc(-c2nc3c4c(nc(OCC5(CN6CC[C@H](OC(F)(F)F)C6)CC5)nc4c2F)N2C[C@H]4CC[C@H](N4)[C@H]2CC3)c2c(OC(F)(F)F)c(F)ccc2c1 [Example 103, 6-fluoro-4-((5aR,6S,9R)-1-fluoro-12-((1-(((S)-3-(trifluoromethoxy)pyrrolidin-1-yl)methyl)cyclopropyl)methoxy)-4,5,5a,6,7,8,9,10-octahydro-3,10a,11,13,14-pentaaza-6,9-methanonaphtho[1,8-ab]heptalen-2-yl)-5-(trifluoromethoxy)naphthalen-2-ol] | 5.3 nM | 62.6 nM
C#Cc1c(F)ccc2cccc(-c3nc4c5c(nc(OC[C@@]67CCCN6[C@H](COc6cccc(S(F)(F)(F)(F)F)c6)CC7)nc5c3F)N3C[C@H]5CC[C@H](N5)[C@@H]3[C@@H](C)C4)c12 [Example 105, (5S,5aS,6S,9R)-2-(8-ethynyl-7-fluoronaphthalen-1-yl)-1-fluoro-5-methyl-12-(((3S,7aS)-3-((3-(pentafluoro-λ^6-sulfaneyl)phenoxy)methyl)tetrahydro-1H-pyrrolizin-7a(5H)-yl)methoxy)-4,5,5a,6,7,8,9,10-octahydro-3,10a,11,13,14-pentaaza-6,9-methanonaphtho[1,8-ab]heptalene] | 5.3 nM | 435 nM
C#Cc1c(F)ccc2cccc(-c3nc4c5c(nc(OCC6(CN7CCC(OC(F)(F)F)CC7)CC6)nc5c3F)N3C[C@H]5CC[C@H](N5)[C@H]3CC4)c12 [Example 107, (5aR,6S,9R)-2-(8-ethynyl-7-fluoronaphthalen-1-yl)-1-fluoro-12-((1-((4-(trifluoromethoxy)piperidin-1-yl)methyl)cyclopropyl)methoxy)-4,5,5a,6,7,8,9,10-octahydro-3,10a,11,13,14-pentaaza-6,9-methanonaphtho[1,8-ab]heptalene] | 7.2 nM | 460 nM
C#Cc1c(F)ccc2cccc(-c3nc4c5c(nc(OC[C@@]67CCCN6[C@H](COc6cccc(S(F)(F)(F)(F)F)c6)CC7)nc5c3F)N3C[C@H]5CC[C@H](N5)[C@H]3CC4)c12 [Example 108, (5aR,6S,9R)-2-(8-ethynyl-7-fluoronaphthalen-1-yl)-1-fluoro-12-(((3S,7aS)-3-((3-(pentafluoro-λ^6-sulfaneyl)phenoxy)methyl)tetrahydro-1H-pyrrolizin-7a(5H)-yl)methoxy)-4,5,5a,6,7,8,9,10-octahydro-3,10a,11,13,14-pentaaza-6,9-methanonaphtho[1,8-ab]heptalene] | 1.5 nM | 450 nM
C#Cc1c(F)ccc2cccc(-c3nc4c5c(nc(OC[C@]67CCCN6CC(OC(C(F)(F)F)(C(F)(F)F)C(F)(F)F)C7)nc5c3F)N3C[C@H]5CC[C@H](N5)[C@H]3CC4)c12 (stereo partly drawn) [Example 114, (5aR,6S,9R)-2-(8-ethynyl-7-fluoronaphthalen-1-yl)-1-fluoro-12-((trans-2-((1,1,1,3,3,3-hexafluoro-2-(trifluoromethyl)propan-2-yl)oxy)tetrahydro-1H-pyrrolizin-7a(5H)-yl)methoxy)-4,5,5a,6,7,8,9,1O-octahydro-3,10a,11,13,14-pentaaza-6,9-methanonaphtho[1,8-ab]heptalene] | 125 nM | 1000 nM
C#Cc1c(F)ccc2cccc(-c3nc4c5c(nc(OC[C@@]67CCCN6[C@H](COC(C6CC6)C(F)(F)F)CC7)nc5c3F)N3C[C@H]5CC[C@H](N5)[C@H]3CCC4)c12 (stereo partly drawn) [Example 117, (6aR,7S,10R)-13-(((3S,7aS)-3-((1-cyclopropyl-2,2,2-trifluoroethoxy)methyl)tetrahydro-1H-pyrrolizin-7a(5H)-yl)methoxy)-2-(8-ethynyl-7-fluoronaphthalen-1-yl)-1-fluoro-5,6,6a,7,8,9,10,11-octahydro-4H-3,11a,12,14,15-pentaaza-7,10-methanocyclohepta[4,5]cycloocta[1,2,3-de]naphthalene] | 0.1 nM | 8.5 nM
C#Cc1c(F)ccc2cccc(-c3nc4c5c(nc(OC[C@@]67CCCN6[C@H](COc6cccc(S(F)(F)(F)(F)F)c6)CC7)nc5c3F)N3C[C@H]5CC[C@H](N5)[C@H]3CCC4)c12 [Example 118, (6aR,7S,10R)-2-(8-ethynyl-7-fluoronaphthalen-1-yl)-1-fluoro-13-(((3S,7aS)-3-((3-(pentafluoro-λ^6-sulfaneyl)phenoxy)methyl)tetrahydro-1H-pyrrolizin-7a(5H)-yl)methoxy)-5,6,6a,7,8,9,10,11-octahydro-4H-3,11a,12,14,15-pentaaza-7,10-methanocyclohepta[4,5]cycloocta[1,2,3-de]naphthalene] | 0.4 nM | 72.7 nM
Fc1ccc2cccc(-c3nc4c5c(nc(OCC6(CN7CCC(OC(F)(F)F)CC7)CC6)nc5c3F)N3C[C@H]5CC[C@H](N5)[C@H]3CC4)c2c1OC(F)(F)F [Example 120, (5aR,6S,9R)-1-fluoro-2-(7-fluoro-8-(trifluoromethoxy)naphthalen-1-yl)-12-((1-((4-(trifluoromethoxy)piperidin-1-yl)methyl)cyclopropyl)methoxy)-4,5,5a,6,7,8,9,10-octahydro-3,10a,11,13,14-pentaaza-6,9-methanonaphtho[1,8-ab]heptalene] | 337 nM | 1000 nM
C#Cc1c(F)ccc2cccc(-c3nc4c5c(nc(OC[C@@]67CCCN6C[C@@]6(CC6(F)F)C7)nc5c3F)N3C[C@H]5CC[C@H](N5)[C@H]3CC4)c12 [Example 121, (5aR,6S,9R)-12-(((1S,7a'S)-2,2-difluorodihydro-1′H,3′H-spiro[cyclopropane-1,2′-pyrrolizin]-7a′(5′H)-yl)methoxy)-2-(8-ethynyl-7-fluoronaphthalen-1-yl)-1-fluoro-4,5,5a,6,7,8,9,10-octahydro-3,10a,11,13,14-pentaaza-6,9-methanonaphtho[1,8-ab]heptalene] | 0.3 nM | 7 nM
Fc1ccc2cccc(-c3nc4c5c(nc(OCC6(CN7CC[C@H](OC(F)(F)F)C7)CC6)nc5c3F)N3C[C@H]5CC[C@H](N5)[C@H]3CC4)c2c1OC(F)(F)F [Example 125, (5aR,6S,9R)-1-fluoro-2-(7-fluoro-8-(trifluoromethoxy)naphthalen-1-yl)-12-((1-(((S)-3-(trifluoromethoxy)pyrrolidin-1-yl)methyl)cyclopropyl)methoxy)-4,5,5a,6,7,8,9,10-octahydro-3,10a,11,13,14-pentaaza-6,9-methanonaphtho[1,8-ab]heptalene] | 417 nM | 1000 nM
C#Cc1c(F)ccc2cccc(-c3nc4c5c(nc(OCC6(CN7CC[C@H](OC(F)(F)F)C7)CC6)nc5c3F)N3C[C@H]5CC[C@H](N5)[C@H]3CCC4)c12 [Example 126, (6aR,7S,10R)-2-(8-ethynyl-7-fluoronaphthalen-1-yl)-1-fluoro-13-((1-(((S)-3-(trifluoromethoxy)pyrrolidin-1-yl)methyl)cyclopropyl)methoxy)-5,6,6a,7,8,9,10,11-octahydro-4H-3,11a,12,14,15-pentaaza-7,10-methanocyclohepta[4,5]cycloocta[1,2,3-de]naphthalene] | 2 nM | 94.4 nM
C#Cc1c(F)ccc2cccc(-c3nc4c5c(nc(OCC6(CN7CCC(OC(F)(F)F)CC7)CC6)nc5c3F)N3C[C@H]5CC[C@H](N5)[C@H]3CCC4)c12 [Example 127, (6aR,7S,10R)-2-(8-ethynyl-7-fluoronaphthalen-1-yl)-1-fluoro-13-((1-((4-(trifluoromethoxy)piperidin-1-yl)methyl)cyclopropyl)methoxy)-5,6,6a,7,8,9,10,11-octahydro-4H-3,11a,12,14,15-pentaaza-7,10-methanocyclohepta[4,5]cycloocta[1,2,3-de]naphthalene] | 1.6 nM | 88.9 nM
C#Cc1c(F)ccc2cc(O)cc(-c3nc4c5c(nc(OC[C@@]67CCCN6C[C@H](OC(C(F)(F)F)(C(F)(F)F)C(F)(F)F)C7)nc5c3F)N3C[C@H]5CC[C@H](N5)[C@H]3CC4)c12 [Example 129, 5-ethynyl-6-fluoro-4-((5aR,6S,9R)-1-fluoro-12-((trans-2-((1,1,1,3,3,3-hexafluoro-2-(trifluoromethyl)propan-2-yl)oxy)tetrahydro-1H-pyrrolizin-7a(5H)-yl)methoxy)-4,5,5a,6,7,8,9,10-octahydro-3,10a,11,13,14-pentaaza-6,9-methanonaphtho[1,8-ab]heptalen-2-yl)naphthalen-2-ol] | 2.7 nM | 13.3 nM
C#Cc1c(F)ccc2cccc(-c3nc4c5c(nc(OC[C@@]67CCCN6C[C@H](OC(C(F)(F)F)(C(F)(F)F)C(F)(F)F)C7)nc5c3F)N3C[C@H]5CC[C@H](N5)[C@H]3CC4)c12 [Example 130, (5aR,6S,9R)-2-(8-ethynyl-7-fluoronaphthalen-1-yl)-1-fluoro-12-((trans-2-((1,1,1,3,3,3-hexafluoro-2-(trifluoromethyl)propan-2-yl)oxy)tetrahydro-1H-pyrrolizin-7a(5H)-yl)methoxy)-4,5,5a,6,7,8,9,10-octahydro-3,10a,11,13,14-pentaaza-6,9-methanonaphtho[1,8-ab]heptalene] | 100 nM | 100 nM
CCc1c(F)ccc2cccc(-c3nc4c5c(nc(OC[C@@]67CCCN6C[C@H](F)C7)nc5c3F)N3C[C@H]5CC[C@H](N5)[C@@H]3[C@@H](C)C4)c12 [Example 131, (5S,5aS,6S,9R)-2-(8-ethyl-7-fluoronaphthalen-1-yl)-1-fluoro-12-(((2R,7aS)-2-fluorotetrahydro-1H-pyrrolizin-7a(5H)-yl)methoxy)-5-methyl-4,5,5a,6,7,8,9,10-octahydro-3,10a,11,13,14-pentaaza-6,9-methanonaphtho[1,8-ab]heptalene] | 55.3 nM | 100 nM
